Laboratory results: patent US11072633B2 (priority 2016, dated 2021)
Like-named read-outs stand apart in the source and are kept apart here.

Columns and labels:
[1] = in vitro; format: cell-based; settings: human
Protocol: (§1) The cytotoxicity of SB107 was determined by measuring […], THP-1, HepG2, and HK-2 cell viability after 3 days in the presence of SB107 in a 384-well plate format. SB107 was prepared as 10-point serial dilutions in DMSO, with the highest concentration at 30 μM. Assay plates were incubated for 3 days at 37° C., 5% CO2 and relative luminescent units (RLU) were measured using the CellTiter-Glo® Luminescent Cell Viability Assay. The dose response curve was fitted using the Levenberg-Marquardt algorithm.

[2] = in vivo; settings: male, CD-1, mouse
[3] = target: T1, CYP3A4 (Homo sapiens, UniProt P08684); assay: Inhibition of CYPs in human liver microsomes, CYP3A4; format: in vitro ADME; settings: for inhibition at 10 µM: both sexes, human, microsomes
T1 construct: using pooled male and female human liver microsomes; from tissue; host or cells: pooled human liver microsomes
Protocol: (§2) The potential for inhibtion of CYP enzymes (CYP1A2, CYP2A6, CYP2B6, CYP2C8, CYP2C9, CYP2C19, CYP2D6, CYP2E1 and CYP3A4) by 107 at 10 μM were using pooled male and female human liver microsomes, Freshly plated human microsomes with substrate to each CYP enzyme was treated with 107 for 5-20 min. The concentrations of marker metabolites of known substrates were determined by LCMS analysis.
(§3) The inhibition of CYP enzymes by 107 was evaluated in human liver microsomes (Table 11).

[4] = test system: M. tuberculosis; assay: Minimum Bactericidal Concentration (MBC); format: cell-based; settings: Mycobacterium tuberculosis; INH with 60 μM 107; read-out: MBC of INH
[5] = test system: Mtb; assay: Isoniazid MIC shift on Mtb MIC plates (broth microdilution MIC); format: cell-based, M. tuberculosis
[6] = both, human, microsomes, 2 μM, pH 7.4
[7] = target: T2, hERG (Homo sapiens, UniProt Q12809); assay: hERG assay (hERG currents in HEK 293 cells); format: cell-based
T2 construct: expressed in transfected cells
Protocol: hERG stably expressed HEK 293 cells were seeded at 5×10^5 cells/per 6 cm cell culture dish and induced with doxycycline at 1 μg/mL for 48 hours. Compound at the final concentrations of 30, 10, 3.33, 1.11 and 0.37 μM was applied to the cells accumulatively, post-compound hERG currents were recorded, and IC50 was calculated. Dofetilide was used as a positive control.
To predict the potential cardiotoxic effects of 6-azastroids, human ether-a-go-go related gene (hERG) assay was applied to 100, 107 and 114 (Table 9). Cytotoxicity of 107 was also assessed (Table 10).

[8] = Metabolic stability in human liver microsomes; settings: both, pH 7.4
[9] = in vitro; format: cell-based; settings: human; remark: listed apart in the source
Protocol: as §1

[10] = Pharmacokinetics and bioavailability in plasma; settings: male, CD-1, mouse
[11] = in vitro; settings: both, human, microsomes, pH 7.4
[12] = in vitro; format: in vitro ADME; settings: human
Protocol: (§4) Caco-2 cells were diluted to 6.86×10^6 cells/mL, dispensed into a 96-well HTS Transwell plate, and cultured for 14 to 18 days. 6-azasteroids at 5 μM was incubated at 37° C. for 2 hours with the Caco-2 cell monolayer in HBSS buffer (10 mM HEPES, pH 7.4) containing 5% BSA. Aliquots from donor sides (apical compartment for Ap→Bl flux, and basolateral compartment for Bl→Ap) and receiver sides (basolateral compartment for Ap→Bl flux, and apical compartment for Bl→Ap) were separated and extracted by acetonitrile or methanol containing appropriate internal standards (IS). The concentration of 6-azasteroid was determined by LC-MS/MS analysis.
(§5) Elution rate: 0.65 mL/min.
(§6) To predict absorption via oral administration, Caco-2 bidirectional permeability assay was performed (Table 8).

[13] = test system: Caco-2 cell line; assay: in vitro; format: in vitro ADME; settings: human, Caco-2, 2 h, 5 μM, pH 7.4
Protocol: as §4, §5, §6

[14] = target: T3, CYP2E1 (Homo sapiens, UniProt P05181); assay: in vitro; format: in vitro ADME; settings: both sexes, microsomes, read-out: % Inhibition 2E1
T3 construct: using pooled male and female human liver microsomes; from tissue; host or cells: pooled human liver microsomes
Protocol: as §2, §3

[15] = target: T4, CYP2B6 (Homo sapiens, UniProt P20813); assay: in vitro; format: in vitro ADME; settings: both sexes, microsomes, read-out: % Inhibition 2B6
T4 construct: using pooled male and female human liver microsomes; from tissue; host or cells: pooled human liver microsomes
Protocol: as §2, §3

[16] = target: T5, CYP2C19 (Homo sapiens, UniProt P33261); assay: in vitro; format: in vitro ADME; settings: both sexes, microsomes, read-out: % Inhibition 2C19
T5 construct: using pooled male and female human liver microsomes; from tissue; host or cells: pooled human liver microsomes
Protocol: as §2, §3

[17] = target: T6, CYP2D6 (Homo sapiens, UniProt P10635); assay: in vitro; format: in vitro ADME; settings: both sexes, microsomes, read-out: % Inhibition 2D6
T6 construct: using pooled male and female human liver microsomes; from tissue; host or cells: pooled human liver microsomes
Protocol: as §2, §3

[18] = target: T7, CYP1A2 (Homo sapiens, UniProt P05177); assay: in vitro; format: in vitro ADME; settings: both sexes, microsomes, read-out: % Inhibition 1A2
T7 construct: using pooled male and female human liver microsomes; from tissue; host or cells: pooled human liver microsomes
Protocol: as §2, §3

[19] = target: T8, CYP2C9 (Homo sapiens, UniProt P11712); assay: in vitro; format: in vitro ADME; settings: both sexes, microsomes, read-out: % Inhibition 2C9
T8 construct: using pooled male and female human liver microsomes; from tissue; host or cells: pooled human liver microsomes
Protocol: as §2, §3

[20] = target: T9, CYP2C8 (Homo sapiens, UniProt P10632); assay: in vitro; format: in vitro ADME; settings: both sexes, microsomes, read-out: % Inhibition 2C8
T9 construct: using pooled male and female human liver microsomes; from tissue; host or cells: pooled human liver microsomes
Protocol: as §2, §3

[21] = target: T10, CYP2A6 (Homo sapiens, UniProt P11509); assay: in vitro; format: in vitro ADME; settings: both sexes, microsomes, read-out: % Inhibition 2A6
T10 construct: using pooled male and female human liver microsomes; from tissue; host or cells: pooled human liver microsomes
Protocol: as §2, §3

[22] = in vivo; settings: male, CD-1, mouse; remark: listed apart in the source
[23] = in vitro; format: cell-based; settings: human; remark: listed apart in the source
Protocol: as §1

[24] = test system: M. tuberculosis constitutively expressing the luxABCDE operon; assay: microbe, parasite or virus in culture; format: cell-based
[25] = Lung tissue distribution
[26] = in vitro; format: cell-based; settings: human; remark: listed apart in the source
Protocol: as §1

T1 sequence (P08684 whole entry): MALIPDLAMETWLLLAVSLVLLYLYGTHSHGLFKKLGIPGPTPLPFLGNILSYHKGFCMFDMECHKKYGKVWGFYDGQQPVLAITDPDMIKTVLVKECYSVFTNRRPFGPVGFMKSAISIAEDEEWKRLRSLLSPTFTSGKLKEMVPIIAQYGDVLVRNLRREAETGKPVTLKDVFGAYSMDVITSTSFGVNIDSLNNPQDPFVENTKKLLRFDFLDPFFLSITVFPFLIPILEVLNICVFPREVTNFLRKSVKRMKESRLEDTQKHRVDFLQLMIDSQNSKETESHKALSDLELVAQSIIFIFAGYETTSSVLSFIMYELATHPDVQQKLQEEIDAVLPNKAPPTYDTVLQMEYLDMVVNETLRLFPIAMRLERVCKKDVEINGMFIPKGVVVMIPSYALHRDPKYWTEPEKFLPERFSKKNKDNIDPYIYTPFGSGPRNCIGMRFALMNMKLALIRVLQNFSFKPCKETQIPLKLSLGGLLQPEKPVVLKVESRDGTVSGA
T2 sequence (Q12809 whole entry): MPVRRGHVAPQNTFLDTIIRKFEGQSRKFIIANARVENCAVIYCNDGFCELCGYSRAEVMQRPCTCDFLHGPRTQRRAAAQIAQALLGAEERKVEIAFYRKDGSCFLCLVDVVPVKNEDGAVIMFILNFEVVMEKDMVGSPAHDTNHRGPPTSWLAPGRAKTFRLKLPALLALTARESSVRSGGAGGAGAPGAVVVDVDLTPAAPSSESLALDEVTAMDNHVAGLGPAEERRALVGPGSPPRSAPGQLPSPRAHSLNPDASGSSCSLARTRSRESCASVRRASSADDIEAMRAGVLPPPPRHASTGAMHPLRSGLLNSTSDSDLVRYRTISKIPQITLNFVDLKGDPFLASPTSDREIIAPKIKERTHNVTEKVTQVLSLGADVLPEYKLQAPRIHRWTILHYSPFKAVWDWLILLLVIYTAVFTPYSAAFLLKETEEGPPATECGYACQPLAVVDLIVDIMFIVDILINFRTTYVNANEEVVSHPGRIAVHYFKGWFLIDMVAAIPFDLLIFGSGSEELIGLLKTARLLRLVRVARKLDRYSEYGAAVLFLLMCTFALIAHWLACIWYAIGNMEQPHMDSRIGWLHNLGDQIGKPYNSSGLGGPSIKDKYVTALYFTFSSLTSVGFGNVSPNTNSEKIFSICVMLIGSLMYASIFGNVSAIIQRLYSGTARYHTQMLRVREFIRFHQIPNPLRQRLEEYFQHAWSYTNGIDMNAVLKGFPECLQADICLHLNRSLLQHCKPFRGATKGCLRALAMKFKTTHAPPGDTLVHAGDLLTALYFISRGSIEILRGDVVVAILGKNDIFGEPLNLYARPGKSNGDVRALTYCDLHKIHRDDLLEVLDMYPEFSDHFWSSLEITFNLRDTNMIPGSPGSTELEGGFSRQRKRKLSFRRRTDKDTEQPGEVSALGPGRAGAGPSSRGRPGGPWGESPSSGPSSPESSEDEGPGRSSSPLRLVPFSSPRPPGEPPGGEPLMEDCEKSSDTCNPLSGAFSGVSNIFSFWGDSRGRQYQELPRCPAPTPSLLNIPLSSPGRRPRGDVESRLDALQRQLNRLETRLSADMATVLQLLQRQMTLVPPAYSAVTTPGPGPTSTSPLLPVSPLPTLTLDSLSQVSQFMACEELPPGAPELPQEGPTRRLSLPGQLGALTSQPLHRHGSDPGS
T9 sequence (P10632 whole entry): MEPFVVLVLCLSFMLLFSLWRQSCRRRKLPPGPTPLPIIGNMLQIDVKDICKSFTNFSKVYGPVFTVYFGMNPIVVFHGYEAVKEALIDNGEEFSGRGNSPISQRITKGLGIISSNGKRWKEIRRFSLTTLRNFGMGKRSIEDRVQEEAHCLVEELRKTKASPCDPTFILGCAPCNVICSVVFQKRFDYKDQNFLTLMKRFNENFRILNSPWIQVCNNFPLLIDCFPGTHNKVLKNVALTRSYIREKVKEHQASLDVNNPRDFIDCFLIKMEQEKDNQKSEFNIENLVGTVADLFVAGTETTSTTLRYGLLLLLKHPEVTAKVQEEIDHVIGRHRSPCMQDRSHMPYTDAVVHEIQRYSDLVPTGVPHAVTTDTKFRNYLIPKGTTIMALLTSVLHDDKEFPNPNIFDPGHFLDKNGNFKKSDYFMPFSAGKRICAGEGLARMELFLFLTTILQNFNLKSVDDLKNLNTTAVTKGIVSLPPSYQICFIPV
T10 sequence (P11509 whole entry): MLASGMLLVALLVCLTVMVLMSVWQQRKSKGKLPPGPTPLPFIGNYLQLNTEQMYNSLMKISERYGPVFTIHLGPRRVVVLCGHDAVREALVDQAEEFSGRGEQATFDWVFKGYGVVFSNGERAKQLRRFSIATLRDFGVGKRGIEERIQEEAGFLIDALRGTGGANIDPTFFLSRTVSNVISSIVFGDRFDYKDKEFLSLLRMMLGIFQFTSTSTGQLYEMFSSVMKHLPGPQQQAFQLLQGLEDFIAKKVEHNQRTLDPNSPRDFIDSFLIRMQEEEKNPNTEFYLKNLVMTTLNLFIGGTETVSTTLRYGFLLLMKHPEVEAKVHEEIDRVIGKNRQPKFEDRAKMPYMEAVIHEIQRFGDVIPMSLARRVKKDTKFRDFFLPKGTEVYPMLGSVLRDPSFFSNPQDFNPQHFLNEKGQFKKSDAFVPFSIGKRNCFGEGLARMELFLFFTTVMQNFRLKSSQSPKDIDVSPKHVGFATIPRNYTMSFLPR
T3 sequence (P05181 whole entry): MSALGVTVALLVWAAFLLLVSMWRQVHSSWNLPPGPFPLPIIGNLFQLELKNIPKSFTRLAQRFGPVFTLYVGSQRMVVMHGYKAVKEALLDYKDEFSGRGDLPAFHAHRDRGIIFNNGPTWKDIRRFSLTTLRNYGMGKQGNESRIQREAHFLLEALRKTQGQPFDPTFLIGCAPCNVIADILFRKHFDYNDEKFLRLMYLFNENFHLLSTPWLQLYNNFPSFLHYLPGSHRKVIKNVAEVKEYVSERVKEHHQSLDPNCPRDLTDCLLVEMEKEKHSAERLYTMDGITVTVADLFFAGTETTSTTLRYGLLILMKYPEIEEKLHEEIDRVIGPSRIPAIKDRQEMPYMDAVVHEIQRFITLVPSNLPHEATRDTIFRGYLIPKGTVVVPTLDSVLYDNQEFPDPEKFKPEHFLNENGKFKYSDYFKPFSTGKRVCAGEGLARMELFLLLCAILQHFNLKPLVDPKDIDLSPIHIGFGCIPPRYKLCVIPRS
T7 sequence (P05177 whole entry): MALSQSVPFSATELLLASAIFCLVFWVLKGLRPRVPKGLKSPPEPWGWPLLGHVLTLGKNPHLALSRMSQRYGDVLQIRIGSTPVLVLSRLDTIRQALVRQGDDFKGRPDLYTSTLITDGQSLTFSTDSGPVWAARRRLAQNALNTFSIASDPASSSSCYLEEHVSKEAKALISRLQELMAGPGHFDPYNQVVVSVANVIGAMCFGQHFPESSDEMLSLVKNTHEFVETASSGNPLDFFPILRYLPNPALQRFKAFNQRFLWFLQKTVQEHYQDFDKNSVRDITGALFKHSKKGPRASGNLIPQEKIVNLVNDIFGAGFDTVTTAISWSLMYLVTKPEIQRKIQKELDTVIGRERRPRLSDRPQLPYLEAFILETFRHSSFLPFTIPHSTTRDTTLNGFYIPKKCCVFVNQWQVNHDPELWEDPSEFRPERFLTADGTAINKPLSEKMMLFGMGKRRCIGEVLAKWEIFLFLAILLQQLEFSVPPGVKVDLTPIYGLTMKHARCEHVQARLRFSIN
T8 sequence (P11712 whole entry): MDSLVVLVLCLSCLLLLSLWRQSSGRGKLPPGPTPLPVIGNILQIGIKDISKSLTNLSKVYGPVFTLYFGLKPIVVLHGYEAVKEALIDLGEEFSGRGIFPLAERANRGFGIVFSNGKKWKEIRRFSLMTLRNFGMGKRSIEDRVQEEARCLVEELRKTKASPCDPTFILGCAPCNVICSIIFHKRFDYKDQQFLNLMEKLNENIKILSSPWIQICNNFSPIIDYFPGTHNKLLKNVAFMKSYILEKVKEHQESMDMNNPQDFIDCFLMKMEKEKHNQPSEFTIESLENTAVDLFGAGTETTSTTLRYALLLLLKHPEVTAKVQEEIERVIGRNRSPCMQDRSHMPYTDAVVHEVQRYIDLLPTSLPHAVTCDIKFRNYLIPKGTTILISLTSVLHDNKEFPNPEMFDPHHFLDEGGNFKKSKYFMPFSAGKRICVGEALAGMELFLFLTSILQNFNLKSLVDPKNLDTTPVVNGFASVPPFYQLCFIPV
T6 sequence (P10635 whole entry): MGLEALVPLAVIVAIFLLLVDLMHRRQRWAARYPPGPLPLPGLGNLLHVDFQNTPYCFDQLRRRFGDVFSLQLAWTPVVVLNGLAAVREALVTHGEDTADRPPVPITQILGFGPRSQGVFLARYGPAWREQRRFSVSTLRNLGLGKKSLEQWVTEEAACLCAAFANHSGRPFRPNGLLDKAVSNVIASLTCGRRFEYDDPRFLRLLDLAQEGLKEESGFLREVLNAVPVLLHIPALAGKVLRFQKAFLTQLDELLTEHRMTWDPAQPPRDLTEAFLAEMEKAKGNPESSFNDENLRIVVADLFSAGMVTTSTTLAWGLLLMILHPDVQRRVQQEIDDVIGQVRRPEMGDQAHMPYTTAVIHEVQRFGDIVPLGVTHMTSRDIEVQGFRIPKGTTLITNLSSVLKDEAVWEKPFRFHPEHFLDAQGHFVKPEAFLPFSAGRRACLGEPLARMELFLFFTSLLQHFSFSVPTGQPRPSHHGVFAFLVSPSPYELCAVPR

SMILES: COc1nc(OC(F)(F)F)c(NC(=O)C2CCC3C4CN(C(=O)OC(C)(C)C)C5=CC(=O)CC[C@]5(C)C4CC[C@]23C)cc1Br (stereo partly drawn) [Compound 107]
- IC50 at 3 days [1]: > 30 µM
- half-life [2]: ~7 h
- Tmax ([2]; po, 5 mg/kg): 1 h
- inhibition at 10 µM ([3]; 107 at 10 μM, either midazolam or testosterone as substrate, read-out: inhibition of CYP 3A4): 30%
- inhibition at 10 µM ([3]; at 10 μM, midazolam as substrate, read-out: % Inhibition 3A4 (midazolam)): 30.4%
- inhibition at 10 µM ([3]; at 10 μM, testosterone as substrate, read-out: % Inhibition 3A4 (testosterone)): 30.5%
- IC50 ([3]; both substrates (midazolam, testosterone), tested 10 nM to 50 μM, read-out: CYP 3A4 IC50): > 50 µM
- MBC [4]: 3 µM
- Isoniazid MIC shift [5]: ++ (4-8-fold ++)
- Remaining Percentage with NADPH, 0 min ([6]; 0 h): 100.00%
- Remaining Percentage with NADPH, 15 min ([6]; 0.25 h): 93.28%
- Remaining Percentage with NADPH, 30 min ([6]; 0.5 h): 79.18%
- Remaining Percentage with NADPH, 45 min ([6]; 0.75 h): 71.86%
- Remaining Percentage with NADPH, 60 min ([6]; 1 h): 65.13%
- hERG inhibition ([7]; at 30 μM): No hERG inhibition was observed
- IC50 ([7]; hERG stably expressed HEK 293 cells): > 30 µM
- inhibition at 30 mM ([7]; human, HEK 293 cells stably expressing hERG, at 30 mM): 34.1%
- half-life at 2 μM [8]: 1.54 h
- IC50 at 3 days [9]: > 30 µM
- half-life ([10]; iv, 1 mg/kg): 6.75 h
- half-life ([10]; po, 5 mg/kg): 4.98 h
- CLint scaled at 2 μM [11]: 1.13 L/h/kg
- microsomal CLint at 2 μM [11]: 15 µL/min/mg
- efflux ratio at 2 h, 5 μM ([12]; Caco-2, pH 7.4, Efflux Ratio): > 1.06
- recovery at 2 h, 5 μM ([12]; Caco-2, pH 7.4, Recovery (%) BL-AP): 63.4%
- Efflux Ratio [13]: 0.71
- Recovery (%) BL-AP [13]: 58.07%
- inhibition at 10 µM [14]: 0%
- inhibition at 10 µM [15]: 0%
- inhibition at 10 µM [16]: 65.3%
- inhibition at 10 µM [17]: 4.4%
- inhibition at 10 µM [18]: 0%
- inhibition at 10 µM [19]: 33.1%
- inhibition at 10 µM [20]: 39.7%
- inhibition at 10 µM [21]: 16.5%
- Tmax ([22]; iv, 1 mg/kg): 0.0833 h
- Tmax ([22]; po, 5 mg/kg): 1 h
- IC50 at 3 days [23]: > 30 µM
- MIC ([24]; Mycobacterium tuberculosis, INH with 15 μM 6-azasteroid, read-out: LORA MIC of INH): 0.75 µM
- activity under low oxygen conditions ([24]; in combination with isoniazid): active
- t1/2 Lung PO ([25]; PO 5 mg/kg, lung, 5 mg/kg): 5.82 h
- half-life ([25]; male, CD-1, mouse, lung, iv, 1 mg/kg, t1/2 Lung IV, IV 1 mg/kg): 6.88 h
- half-life ([25]; male, CD-1, mouse, lung, po, 5 mg/kg, t1/2 Lung PO, PO 5 mg/kg): 5.8 h
- Kp ([25]; male, CD-1, mouse, lung/plasma, po, 5 mg/kg): 1.74
- IC50 at 3 days [26]: > 30 µM
